According to publication PMC5176352, “Structural basis for subtype-specific inhibition of the P2X7 receptor” (eLife, 2016):
Read-outs that look alike come from different tables or passages of the source. Blank lines part the entries; values can stand above or below the compound they belong to.

Key:
wildtype pdP2X7 = wildtype pdP2X7 (Ailuropoda melanoleuca, UniProt G1M6C4); assay: BzATP dose response of YO-PRO-1 uptake with antagonists, fitted with competitive / non-competitive inhibition models; format: cell-based, giant panda (Ailuropoda melanoleuca); details: for Kb: curve fitting of BzATP dose responses
Text: To clarify the working mechanism for each drug, we measured the dose responses of the P2X7 mediated YO-PRO-1 uptake in the presence of each drug at multiple concentrations. We used BzATP—an artificial but potent agonist of P2X7 receptors—for these experiments to achieve saturating responses in the presence of concentrated antagonist.
(§1) Human embryonic kidney (HEK293) cells were maintained in DMEM medium (Thermo Fisher Scientific) supplemented with 10% FBS (Atlanta Biologicals, Flowery Branch, GA), and 10 μg/mL gentamicin (Thermo Fisher Scientific). HEK293 cells were split into six well plates at a cell density of 2.0 × 10^6 cells/well and incubated overnight. […] Cells were washed with assay buffer (2 mM KCl, 0.1 mM CaCl2, 13 mM Glucose, 147 mM NaCl, 10 mM HEPES (pH 7.3)) and were incubated with 5 μM YO-PRO-1 Iodide (Thermo Fisher Scientific), in the presence or absence of antagonists at multiple concentrations at 37°C for 10 min. Upon application of 1 mM ATP (final), uptake of YO-PRO-1 was recorded with 1 min intervals by following the fluorescence change using a Synergy HT multi-detection microplate reader (Bio-Tek, Winooski, VT; Ex: 485 nm/20, Em:528 nm/20, sensitivity 60). To obtain the dose dependent uptake inhibition by antagonists, the initial rates of YO-PRO-1 uptake were plotted against multiple concentrations of the P2X7 specific drugs. The inhibition curves from five independent measurements were fitted to the Hill equation using Origin software (Originlab, Northampton, MA) to determine the IC50 values.
Dose response curves of the YO-PRO-1 uptake experiments were fitted with either competitive or non-competitive inhibition models using Origin 6.0 software (OriginLab) as previously described ([Kenakin, 2006]). For the competitive antagonism model, we used the equation: Response=[A]/KA/[A]KA(1+τ)+[B]/KB+1
where [A] , [B] are the concentrations of BzATP and antagonists, respectively; KA and KB are the equilibrium dissociation-constant of BzATP and antagonists, respectively. […] KB was then determined using the dose response curves in the presence of antagonists. […] For the non-competitive inhibition model, we used the equation: Response=([A]^nτ^nEmax)/([A]^nτ^n+([A](1+α[B]/KB)+KA[B]/KB+KA)^n
where n is the Hill coefficient, and Emax is the maximum initial rate. […] Schild regression analysis was performed as described previously ([Wyllie and Chen, 2007]). Briefly, concentrations of BzATP at half maximal initial rates of YO-PRO-1 uptake in the presence (EC50’) or absence (EC50) of antagonists were determined by fitting the dose responses with the Hill equation.

full length pdP2X7 = full length pdP2X7 (Ailuropoda melanoleuca, UniProt G1M6C4); assay: YO-PRO-1 uptake assay (inhibition of ATP-triggered dye uptake); format: cell-based, giant panda (Ailuropoda melanoleuca)
Text: We further validated the drug-receptor interactions by site-directed mutagenesis on the drug-binding residues. To facilitate robust and systematic data collection, we monitored cellular uptake of the fluorescent dye, YO-PRO-1, as a proxy for receptor activity ([Surprenant et al., 1996]) (Figure 3—figure supplement 4A). […] In particular, interaction with F103 is crucial for the inhibitory action of all five drugs.
as §1

pdP2X7 = target: T1, pdP2X7 (Ailuropoda melanoleuca, UniProt G1M6C4); assay: Whole cell patch clamp ATP dose response
T1 sequence (G1M6C4 2-606): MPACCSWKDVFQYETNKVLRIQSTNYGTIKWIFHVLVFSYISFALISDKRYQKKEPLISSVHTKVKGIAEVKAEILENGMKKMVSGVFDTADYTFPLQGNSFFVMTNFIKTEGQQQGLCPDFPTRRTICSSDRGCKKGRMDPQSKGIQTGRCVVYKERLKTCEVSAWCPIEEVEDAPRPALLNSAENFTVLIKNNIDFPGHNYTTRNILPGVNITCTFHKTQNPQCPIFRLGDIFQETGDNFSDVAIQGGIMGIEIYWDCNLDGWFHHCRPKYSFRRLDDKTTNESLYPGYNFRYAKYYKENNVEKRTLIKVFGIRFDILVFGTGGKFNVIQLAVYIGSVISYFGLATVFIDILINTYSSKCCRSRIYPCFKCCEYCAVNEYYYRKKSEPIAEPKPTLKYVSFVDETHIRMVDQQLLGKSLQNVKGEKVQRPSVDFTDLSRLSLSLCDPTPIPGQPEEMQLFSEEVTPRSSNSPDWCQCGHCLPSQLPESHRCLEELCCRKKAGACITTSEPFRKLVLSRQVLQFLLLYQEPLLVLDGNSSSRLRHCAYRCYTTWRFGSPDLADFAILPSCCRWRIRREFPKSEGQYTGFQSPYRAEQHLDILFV

P2X7 receptor = target: P2X7 receptor; parameters: method as in Yan et al., 2010; details: under physiological ion concentrations; ref Yan et al., 2010; read-out: EC50 for initial activation; cited from earlier work
pdP2X7cryst = target: T2, pdP2X7cryst (Ailuropoda melanoleuca, UniProt G1M6C4, E175K/N242S/N285S/R126A/V36A); assay: Whole cell patch clamp ATP dose response
T2 sequence (G1M6C4 23-360 V36A/R126A/E175K/N242S/N285S): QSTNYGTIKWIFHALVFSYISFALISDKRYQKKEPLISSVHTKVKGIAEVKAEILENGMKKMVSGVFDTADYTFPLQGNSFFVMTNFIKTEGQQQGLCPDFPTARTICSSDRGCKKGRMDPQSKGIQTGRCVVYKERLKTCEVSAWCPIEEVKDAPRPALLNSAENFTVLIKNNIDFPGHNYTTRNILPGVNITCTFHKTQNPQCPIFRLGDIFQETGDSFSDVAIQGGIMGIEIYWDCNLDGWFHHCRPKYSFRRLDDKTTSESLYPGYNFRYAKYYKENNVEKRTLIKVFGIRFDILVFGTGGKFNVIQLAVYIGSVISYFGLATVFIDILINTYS

[1] = competitive model, read-out: KB (equilibrium dissociation-constant of antagonist), competitive antagonism model
[2] = non-competitive model, α = 1, read-out: KB (equilibrium dissociation-constant of antagonist), non-competitive inhibition model
[3] = HEK293 cells, YO-PRO-1 uptake initiated with 1 mM ATP, initial rates, wildtype, read-out: IC50
[4] = KB (equilibrium dissociation-constant of antagonist), competitive antagonism model, competitive model
[5] = KB (equilibrium dissociation-constant of antagonist), non-competitive inhibition model, non-competitive model, α = 1
[6] = data without antagonists, non-competitive model equation
[7] = dose response without antagonist, competitive model equation

SMILES: COc1ccc(CC(=O)NC(N/C(=N/C#N)Nc2cccc3ncccc23)C(C)(C)C)cc1OC (centres unmarked) [A740003, N-(1-{[(cyanoimino)(5-quinolinylamino)methyl]amino}-2,2-dimethylpropyl)-2-(3,4-dimethoxyphenyl)acetamide]
Kb (wildtype pdP2X7; [1]): 0.024 µM | Kb (wildtype pdP2X7; [2]): 1.2 µM | IC50 (full length pdP2X7; [3]): 0.0693 µM

SMILES: C[C@H](N/C(=N/C#N)Nc1cccc2ncccc12)c1ccccc1 [A804598, 2-cyano-1-[(1S)-1-phenylethyl]-3-quinolin-5-ylguanidine]
Kb (wildtype pdP2X7; [1]): 0.015 µM | Kb (wildtype pdP2X7; [2]): 0.57 µM | IC50 (full length pdP2X7; [3]): 0.0217 µM

SMILES: Nc1ncnc2c1ncn2[C@@H]1O[C@H](COP(=O)(O)OP(=O)(O)OP(=O)(O)O)[C@@H](O)[C@H]1O [ATP, adenosine triphosphate]
EC50 (pdP2X7): 122 µM | EC50 (P2X7 receptor): ≥ 1000 µM | EC50 (pdP2X7cryst): 40 µM

Results, then the compound that gave them:

Kb (wildtype pdP2X7; [4]): 0.056 µM | Kb (wildtype pdP2X7; [5]): 3.4 µM | IC50 (full length pdP2X7): 0.231 µM
SMILES: O=C(CC12CC3CC(CC(C3)C1)C2)Nc1cccc2nc(NCCNCCO)ccc12 [AZ10606120]

KA (equilibrium dissociation-constant of BzATP), non-competitive inhibition model (wildtype pdP2X7; [6]): 220 µM | n (Hill coefficient), non-competitive inhibition model (wildtype pdP2X7; [6]): 2.6 | τ, non-competitive inhibition model (wildtype pdP2X7; [6]): 10 | KA (equilibrium dissociation-constant of BzATP), competitive antagonism model (wildtype pdP2X7; [7]): 28 µM | τ, competitive antagonism model (wildtype pdP2X7; [7]): 0.031
SMILES: Nc1ncnc2c1ncn2[C@@H]1O[C@H](COP(=O)(O)OP(=O)(O)OP(=O)(O)O)[C@@H](OC(=O)c2ccc(C(=O)c3ccccc3)cc2)[C@H]1O [BzATP]

Kb (wildtype pdP2X7; [4]): 3 µM | Kb (wildtype pdP2X7; [5]): 266 µM | IC50 (full length pdP2X7): 8.9 µM
SMILES: Cc1ccc(CN2CCNCC2)cc1NC(=O)CNc1ccc(F)c(F)c1 [GW791343]

Kb (wildtype pdP2X7; [4]): 0.0017 µM | Kb (wildtype pdP2X7; [5]): 0.14 µM | IC50 (full length pdP2X7): 0.0119 µM
SMILES: O=C(NCC1(N2CCN(c3ccccc3)CC2)CCOCC1)c1cccnc1Sc1ccccc1 [JNJ47965567]
